Test results: patent US20070219172A1, “Selective testicular 11beta-HSD inhibitors for the treatment of hypergonadism associated disorders and modulation of fertility” (The Miriam Hospital, priority 2005, published 2007)
Entries after “also recorded” stand apart in the source; their conditions may differ. Read-outs that look alike come from different tables or passages of the source.

Key:
[1] = target: T1, 11β-HSD1 Reductase (Rattus norvegicus, UniProt P16232); experiment: 11β-HSD1 reductase inhibition, testicular Leydig cell homogenates; assay type: biochemical; conditions: result in words
T1 construct: testicular leydig cell homogenates; from tissue; host or cells: testicular Leydig cell homogenates

[2] = target: T2, 11β-HSD1 Dehydrogenase (Rattus norvegicus, UniProt P16232); experiment: 11β-HSD1 dehydrogenase inhibition, testicular Leydig cell homogenates; assay type: biochemical; conditions: result in words
T2 construct: testicular leydig cell homogenates; from tissue; host or cells: testicular Leydig cell homogenates

[3] = test system: rat Leydig cells
[4] = target: T3, 11β-HSD2 Dehydrogenase (Ovis aries, UniProt P50168); experiment: 11β-HSD2 dehydrogenase inhibition, sheep kidney microsomes; assay type: biochemical; conditions: result in words
T3 construct: sheep kidney microsomes; from tissue; host or cells: sheep kidney microsomes
T3 sequence (P50168 1-427): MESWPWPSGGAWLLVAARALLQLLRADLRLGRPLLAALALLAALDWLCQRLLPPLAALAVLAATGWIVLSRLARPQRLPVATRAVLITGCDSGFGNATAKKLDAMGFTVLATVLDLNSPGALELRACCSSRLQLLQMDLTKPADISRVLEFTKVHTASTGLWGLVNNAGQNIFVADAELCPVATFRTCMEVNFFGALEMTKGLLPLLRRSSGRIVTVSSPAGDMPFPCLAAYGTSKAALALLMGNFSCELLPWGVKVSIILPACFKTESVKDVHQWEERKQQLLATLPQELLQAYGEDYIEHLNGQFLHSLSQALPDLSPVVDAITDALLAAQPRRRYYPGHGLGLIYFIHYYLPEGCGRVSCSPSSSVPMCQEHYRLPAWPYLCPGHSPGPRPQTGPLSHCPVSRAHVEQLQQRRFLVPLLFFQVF

[5] = target: T1, 11β-HSD1 Reductase; experiment: Backward reaction of 11β-HSD1 reductase in rat Leydig cells; assay type: cell-based
Description: Similar experiments were performed with 3α,5β-deoxycorticosterone and 3α,5β progesterone, neither of which posess an 11β-hydroxy group.

[6] = test system: rat aortic rings; experiment: Contractile response of rat aortic rings to phenylephrine; conditions: rat aortic rings incubated with the steroid, versus controls
Description: Male Sprague-Dawley (150-200 g) rats were anesthetized with pentobarbital (50 mg/kg IP), and a median sternotomy was performed followed by the rapid removal of the thoracic aorta. The adventitia was removed, but the endothelium was left intact. The aorta was cut into 2-3 mm rings and individual rings were placed into a single well of a twenty four well culture plate and incubated at 37° C. under 95% O2-5% CO2. Each well contained 1 mL of DMEM/F12 containing 1% fetal bovine serum, streptomycin (100 μg/ml), penicillin (100 units/ml) and amphotericin (0.25 μg/ml). Aortic rings were incubated for 24 hours prior to contractility measurements with the following combinations of steroids, and antisense/nonsense oligonucleotides (3 μmol/L):
Antisense phosphorothioate oligonucleotides, targeted to block either 11β-HSD2 or 11β-HSD1 gene expression, were obtained from Research Genetics, Huntsville Ala. Antisense oligomers complementary to 20 bp sequences spanning the ribosome binding/translation start site were used. Oligomer sequences were: 5′-CATAACTGCCGTCCAACAGC-3′ (SEQ ID No.: 2) for 11β-HSD1 Antisense and 5′-AGCCCAGCGCTCCATGACTT-3′ (SEQ ID No. 3) for 111-HSD2 antisense. In control experiments the corresponding sense sequence was used as the nonsense oligomer. Antisense and nonsense oligomers were added directly to each well at 20 μg/10:1 sterile H20 per well for a final concentration of 3 μmol/L.
For contraction measurements, aortic rings were suspended by tungsten wires with 1 g of tension and placed in a vessel bath containing serum free DMEM/F12 media at 37° C. aerated with 95% O2-5% CO2, at pH 7.4. Vessels were equilibrated for 20 minutes and then tested with phenylephrine ([…]-10 μmol/L). […] The intensity of contraction was assessed by use of a Narishige micromanipulator and model FT03 force transducer (Grass Instrument Co. West Warwick, R.I.). Measurements were recorded on computer using the Labview 4.1 Virtual Instrument System (National Instruments, Austin, Tex.).

[7] = whole cell preparations of rat Leydig cells

T2 sequence (P16232 whole entry): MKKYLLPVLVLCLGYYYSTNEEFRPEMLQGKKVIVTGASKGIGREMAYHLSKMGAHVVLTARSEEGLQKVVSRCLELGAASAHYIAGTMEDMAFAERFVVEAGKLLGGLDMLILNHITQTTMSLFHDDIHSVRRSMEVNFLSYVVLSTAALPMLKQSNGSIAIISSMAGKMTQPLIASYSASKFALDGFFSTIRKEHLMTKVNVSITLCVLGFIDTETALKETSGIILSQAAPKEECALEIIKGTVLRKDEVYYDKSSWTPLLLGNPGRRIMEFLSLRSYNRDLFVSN
T1 sequence (P16232 whole entry): as above

Compound: 3α,5α-reduced-11-keto-progesterone
- 11β-HSD1 Reductase inhibition [1]: Selective Inhibitor
- 11β-HSD1 Dehydrogenase inhibition [2]: No Inhibition

Compound: C[C@]12CC[C@@H](O)C[C@@H]1CC[C@@H]1[C@@H]2CC[C@]2(C)[C@@H](O)CC[C@@H]12 [3α5α TH-testosterone]
- increase in NADPH production [3]: three to five fold increase

Compound: C[C@@]12CC[C@@H]3[C@H]([C@@H](O)C[C@]4(C=O)[C@@H](C(=O)CO)CC[C@@H]34)[C@@]1(C)CC[C@@H](O)C2 [3α,5α-reduced aldosterone]
- 11β-HSD1 Reductase inhibition [1]: No Inhibition
- 11β-HSD1 Dehydrogenase inhibition [2]: Moderate Inhibitor
- 11β-HSD2 Dehydrogenase inhibition [4]: Potent Inhibitor

Compound: C[C@]12CC[C@@H](O)C[C@@H]1CC[C@@H]1[C@@H]2C(=O)C[C@]2(C)C(=O)CC[C@@H]12 [3α,5α-reduced-11-keto-androstenedione]
- 11β-HSD1 Reductase inhibition [1]: Selective Inhibitor
- 11β-HSD1 Dehydrogenase inhibition [2]: No Inhibition

Compound: C[C@]12CC[C@H](O)C[C@@H]1CC[C@H]1[C@@H]3CC[C@H](O)[C@@]3(C)CC(=O)[C@@H]12 [3α,5α-reduced-11-keto-testosterone]
- 11β-HSD1 Reductase inhibition [1]: Selective Inhibitor
- 11β-HSD1 Dehydrogenase inhibition [2]: No Inhibition

Compound: C[C@]12CC[C@H](O)C[C@H]1CC[C@@H]1[C@@H]2[C@@H](O)C[C@]2(C)C(=O)CC[C@H]12 [3α,5α-reduced-11β-OH-androstenedione]
- 11β-HSD1 Reductase inhibition [1]: No Inhibition
- 11β-HSD1 Dehydrogenase inhibition [2]: Moderate Inhibitor
- 11β-HSD2 Dehydrogenase inhibition [4]: Potent Inhibitor (Non-Selective)

Compound: CC(=O)[C@H]1CC[C@H]2[C@@H]3CC[C@H]4C[C@@H](O)CC[C@]4(C)[C@H]3[C@@H](O)C[C@]12C [3α,5α-reduced-11β-OH-progesterone]
- 11β-HSD1 Reductase inhibition [1]: No Inhibition
- 11β-HSD1 Dehydrogenase inhibition [2]: Potent Inhibitor (Non-Selective)
- 11β-HSD2 Dehydrogenase inhibition [4]: Potent Inhibitor (Non-Selective)
- increase in NADPH production [3, 7]: three to five fold increase

Compound: C[C@]12CC[C@@H](O)C[C@@H]1CC[C@@H]1[C@@H]2[C@@H](O)C[C@@]2(C)[C@@H]1CC[C@@H]2O [3α,5α-reduced-11β-OH-testosterone]
- 11β-HSD1 Reductase inhibition [1]: No Inhibition
- 11β-HSD1 Dehydrogenase inhibition [2]: Potent Inhibitor (Non-Selective)
- 11β-HSD2 Dehydrogenase inhibition [4]: Potent Inhibitor (Non-Selective)

Compound: C[C@]12CC[C@@H](O)C[C@@H]1CC[C@@H]1[C@@H]2[C@@H](O)C[C@]2(C)[C@@H](C(=O)CO)CC[C@@H]12 [3α,5α-reduced-corticosterone]
- 11β-HSD1 Reductase inhibition [1]: No Inhibition
- 11β-HSD1 Dehydrogenase inhibition [2]: Potent Inhibitor
- 11β-HSD2 Dehydrogenase inhibition [4]: Potent Inhibitor
- increase in NADPH production [3, 7]: three to five fold increase

Compound: C[C@]12CC[C@@H](O)C[C@@H]1CC[C@H]1[C@@H]3CC[C@H](C(=O)CO)[C@@]3(C)CC(=O)[C@@H]12 [3α,5α-tetrahydro-11-dehydro-corticosterone]
- 11β-HSD1 Reductase inhibition [1]: Potent Inhibitor
- 11β-HSD1 Dehydrogenase inhibition [2]: No Inhibition
- 11β-HSD2 Dehydrogenase inhibition [4]: Potent Inhibitor

Compound: CC(=O)[C@H]1CC[C@H]2[C@@H]3CC[C@@H]4C[C@H](O)CC[C@]4(C)[C@H]3CC[C@]12C [3α,5β progesterone, 3α,5β-tetrahydro-progesterone]
- 11β-HSD1 Dehydrogenase inhibition [2]: potent inhibitors
- effect on the backward reaction of 11β-HSD1 reductase [5]: Neither of these compounds effected the backward reaction

Compound: C[C@]12CC[C@@H](O)C[C@H]1CC[C@@H]1[C@@H]2CC[C@]2(C)[C@@H](C(=O)CO)CC[C@@H]12 [3α,5β-deoxycorticosterone, 3α,5β-terahydro-deoxycorticosterone]
- 11β-HSD1 Dehydrogenase inhibition [2]: potent inhibitors
- effect on the backward reaction of 11β-HSD1 reductase [5]: Neither of these compounds effected the backward reaction

Compound: C[C@]12CCC(=O)C[C@@H]1CC[C@@H]1[C@@H]2[C@@H](O)C[C@]2(C)[C@@H](C(=O)CO)CC[C@@H]12 [5α-dihydro-corticosterone]
- 11β-HSD1 Reductase inhibition [1]: No inhibition
- 11β-HSD1 Dehydrogenase inhibition [2]: Potent Inhibitor
- 11β-HSD2 Dehydrogenase inhibition [4]: Potent Inhibitor

Compound: C[C@]12CCC(=O)C=C1CC[C@@H]1[C@@H]2C(=O)C[C@]2(C)C(=O)CC[C@@H]12 [11-Keto-androstenedione]
- 11β-HSD1 Reductase inhibition [1]: Selective Inhibitor
- 11β-HSD1 Dehydrogenase inhibition [2]: No Inhibition
- 11β-HSD2 Dehydrogenase inhibition [4]: No Inhibition

Compound: C[C@]12CC(=O)[C@H]3[C@@H](CCC4=CC(=O)CC[C@@]43C)[C@@H]1CC[C@@H]2O [11-Keto-testosterone]
- 11β-HSD1 Reductase inhibition [1]: Selective Inhibitor
- 11β-HSD1 Dehydrogenase inhibition [2]: No Inhibition
- 11β-HSD2 Dehydrogenase inhibition [4]: No Inhibition

Compound: C[C@]12CC(=O)[C@H]3[C@@H](CCC4=CC(=O)CC[C@@]43C)[C@@H]1CC[C@@H]2C(=O)CO [11-dehydro-corticosterone]
- amplification of the contractile response to phenylephrine by the steroid [6]: amplified

Compound: CC(=O)[C@H]1CC[C@H]2[C@@H]3CCC4=CC(=O)CC[C@]4(C)[C@H]3[C@@H](O)C[C@]12C [11β-OH-progesterone]
- 11β-HSD1 Reductase inhibition [1]: No Inhibition
- 11β-HSD1 Dehydrogenase inhibition [2]: Potent Inhibitor (Non-Selective)

Compound: C[C@]12C[C@H](O)[C@H]3[C@@H](CCC4=CC(=O)CC[C@@]43C)[C@@H]1CC[C@@H]2O [11β-OH-testosterone]
- 11β-HSD1 Reductase inhibition [1]: No Inhibition
- 11β-HSD1 Dehydrogenase inhibition [2]: Inhibitor (Non-Selective)
- 11β-HSD2 Dehydrogenase inhibition [4]: Inhibitor (Non-Selective)

Compound: C[C@H](CCC(=O)O)[C@H]1CC[C@H]2[C@@H]3[C@H](O)C[C@@H]4C[C@H](O)CC[C@]4(C)[C@H]3CC[C@]12C [chenodeoxycholic acid]
- 11β-HSD1 Reductase inhibition [1]: No Inhibition
- 11β-HSD1 Dehydrogenase inhibition [2]: potent inhibitors; also recorded: Selective inhibitor
- 11β-HSD2 Dehydrogenase inhibition [4]: No Inhibition

Compound: C[C@]12C[C@H](O)[C@H]3[C@@H](CCC4=CC(=O)CC[C@@]43C)[C@@H]1CC[C@@H]2C(=O)CO [corticosterone]
- amplification of the contractile response to phenylephrine by the steroid [6]: amplified contractile responses
